Patent US20010016590A1, “Use of hydroxymatairesinol for prevention of cancers, non-cancer, hormone dependent diseases and cardiovascular diseases by hydroxymatairesinol, and a pharmaceutical preparation, food additive and food product comprising hydroxymatairesinol” (priority 1999, published 2001)

What was measured:
aromatase = target: T1, aromatase (Homo sapiens, UniProt P11511); assay: Aromatase inhibiting capacity in JEG-3 cells; type: cell-based; details: FIG. 1, enterolactone within 1.0 to 10.0 μM
T1 construct: 800 μl cell suspension (1 million cells); endogenous in cells; host or cells: JEG-3 human choriocarcinoma cells
T1 sequence (P11511 1-503): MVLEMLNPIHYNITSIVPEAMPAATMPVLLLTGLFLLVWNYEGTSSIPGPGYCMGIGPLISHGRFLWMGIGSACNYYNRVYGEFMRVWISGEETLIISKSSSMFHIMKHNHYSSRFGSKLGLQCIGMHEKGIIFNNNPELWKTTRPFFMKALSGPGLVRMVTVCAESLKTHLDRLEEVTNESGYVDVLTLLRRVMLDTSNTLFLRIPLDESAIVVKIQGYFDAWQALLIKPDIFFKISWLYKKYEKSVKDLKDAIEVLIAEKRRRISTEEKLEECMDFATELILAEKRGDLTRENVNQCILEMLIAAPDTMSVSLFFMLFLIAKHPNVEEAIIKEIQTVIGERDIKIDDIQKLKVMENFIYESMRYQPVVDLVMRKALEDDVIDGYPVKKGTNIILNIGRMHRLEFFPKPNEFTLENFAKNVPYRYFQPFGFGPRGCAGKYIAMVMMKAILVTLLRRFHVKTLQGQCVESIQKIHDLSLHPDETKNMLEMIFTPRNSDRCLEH
Experimental: The effects of HMR and structurally related lignans (enterolactone, enterodiol and 7-hydroxyenterolactone) were studied on formation of ^3H-17β-estradiol from ^3H-andostenedione in JEG-3 cells, human choriocarcinoma cell line. […] Cells were maintained in DMEM containing 10% fetal calf serum (FCS). The incubation mixture contained 50 μl ^3H-androst-4-ene, 3,17-dione (0.5 nM), 50 μl unlabelled androstenedione (0.5 nM), 100 μl test compounds (10 mM) and 800 μl cell suspension (1 million cells). After the incubation for 4 h, unlabelled carriers (androstenedione, testosterone, 17β-estradiol and estrone) were added. The steroids were extracted twice with 3.0 ml dichloromethane. […] The column system consisted of a guard column followed by a C18 150×3.9 mm ID analytical column (Technopak 10 C18 HPLC Technology; Wellington House, Cheshire, UK). The mobile phase was acetonitrile /water (35/65) and the flow rate was 1.2 ml/min. For in-line detection of the radioactive metabolites, the eluent of the HPCL column was continuously mixed with liquid scintillant and then monitored with in-line radioactivity detector.

[1] = system: hypoandrogenic Noble strain male rats; assay: Antiestrogenic activity in hypoandrogenic (neonatally estrogenized) adult male rats; type: in vivo, rat; details: hypoandrogenic animals
Experimental: (§1) Estrogenic (anfiandrogenic) and antiestrogenic effects of HMR were studied in intact and hypoandrogenic Noble strain male rats (age 6-9 month), correspondingly. The chronic hypoandrogenic state with both structural and functional changes in the male reproductive tract was induced by neonatal estrogenization (diethylstilbestrol, 10.0 μg/kg body weight in rape oil s.c. on postnatal days 1-5). These changes are known to be partly reversible by aromatase inhibitor treatment consisting daily dose of MPV-2213 ad 10-30 mg/kg body weight (Streng et al. unpublished observations).
(§2) Twelve of both intact and hypoandrogenic animals were cavaged in daily dosage of HMR 50 mg/kg body weight in rape oil. Another twelve animals from both animal models were cavaged with rape oil only as a placebo treatment. After four-week treatment the animals were sacrificed. The weights of testis and accessory sex glands (ventral prostate, seminal vesicles and coagulating gland) were measured. Serum and testis testosterone and pituitary and serum luteinizing hormone (LH) levels were measured by immunoassays (Haavisto et al. 1993).

MCF-7 cells = assay: Estrogenic and antiestrogenic activity in MCF-7 cell proliferation assay; type: cell-based, human; details: FIG. 2
Experimental: The MCF-7 cell line (human breast cancer cells) stock cultures were grown in phenol red free RPMI medium supplemented with 5 % FCS, 100 U/ml penicillin and 100 μg/ml streptomycin, 10 μg/ml insulin and 1 nM 17μ-estradiol in T-75 cell culture bottles. The medium was replaced with fresh ones three times per week. The stock cultures were harvested by trypsinization and suspended in 10 ml phenol red free versene solution and centrifuged for 5 min 800 rpm. The cell pellet was carefully resuspended into RPMI medium supplemented with 5% dextran charcoal stripped FCS (dcFCS) and seeded on 6 well plates 50 000 cells/ 3.0 ml medium/ well. On the second day of culture the medium was changed and test compounds were added. To test the estrogenicity of the lignan compounds, they were diluted in ethanol and added to cell cultures in final concentration of […]. In each proliferation assay 1.0 nM 1 7β-estradiol solution in ethanol was used as a positive control for estrogenic response. Equal amounts of ethanol were added to control wells. To test the antiestrogenicity both 17β-estradiol and lignan solutions were added to cell cultures. The cells were cultured for 5 to 7 days in the presence of test compounds, and the medium was changed every second day. Cell proliferation was quantified by counting the released nuclei with Coulter counter.

[2] = system: DMBA-induced mammary gland tumors; assay: Antitumor activity in rat DMBA-induced mammary cancer model; type: in vivo
Experimental: Antitumor activity of HMR in rat mammary cancer was studied as described earlier ([…] et al. 1986). Fifty-day-old female Sprague-Dawley rats were given 12.0 mg DMBA (dimethylbentz[a]anthracene) by […]. After approximately 6 weeks palpable tumors could be detected, whereafter the width (w) and the length (1) of the tumors were measured once a week to determine the tumor volumes according to a formula V=(πw^21)/12. The rats were also weighed once a week. The rats were allocated in 3 different groups so that the total number of tumors in the beginning of the experiment was similar in each group: (1) Control group 8 animals, (2) HMR 3.0 mg/kg 7 animals, and (3) HMR 15.0 mg/kg 7 animals, one of which had to be killed before the end of the experiment. HMR was given per os starting 9 weeks after the DMBA-induction, i.e. 3 weeks after palpable tumors appeared, and was given daily for 7.5 weeks. At the end of the experiment the tumors were classified in groups according to their growth pattern: 1. Growing tumors (PD=progressive disease); 2. Non-growing, stabilized tumors (SD=stabilized disease, no change in tumor volume or regression less than 75%; 3. Regressing tumors (PR=partial response, regression of tumor volume more than 75%); 4. Disappeared tumors (CR=complete response, no palpable tumor).

[3] = system: uterine growth of immature rats; assay: Immature rat uterotropic test; type: in vivo; details: 7 days treatment, FIG. 3
Experimental: The estrogenicity HMR was evaluated by the uterotropic assay in immature rats which was performed as described earlier (Jordan et al. 1977), with the exception of treatment time which was 7 days instead of 3 days in the reference study. The treatment time was longer because of the expected weak estrogenicity of the test compound. The treatment of immature rats with an aromatase inhibitor (MPV-2213ad), which prevents biosynthesis of estradiol, was used as a methodological control for non-estrogen-stimulated uterus.

[4] = system: intact Noble strain male rats; assay: Estrogenic (antiandrogenic) activity in intact adult male rats; type: in vivo, rat
Experimental: as §1, §2

[5] = system: chemically induced aberrant crypts in rat colon; details: Serraino and Thompson 1992, Jenab and Thompson 1996; cited from earlier work
[6] = system: antiestrogen-sensitive DMBA-induced breast cancer; details: supplementation of a high-fat diet; flaxseed flour 5% or 10%; Serraino and Thompson; Thompson et al.; cited from earlier work
uterine weight = details: feeding during pregnancy and lactation to rats; not evident at later stages; Tou et al. 1998; cited from earlier work
[7] = intact animals, 50 mg/kg HMR, four week exposure, mean

## OCC(Cc1cccc(O)c1)C(CO)Cc1cccc(O)c1 (stereo not shown) [enterodiol, 2,3-bis-(3’-hydroxybenzyl)-butane-1,4-diol]
aromatase
  Inhibition of 3H-17β-estradiol formation from 3H-androstenedione (aromatization): noninhibitory

## O=C1OCC(Cc2cccc(O)c2)C1Cc1cccc(O)c1 (stereo not shown) [enterolactone, 2,3-bis-(3’-hydroxybenzyl)-butyrolactone]
aromatase
  Inhibition of 3H-17β-estradiol formation from 3H-androstenedione (aromatization): dose-dependent inhibition

## COc1cc(CC2C(=O)OCC2C(O)c2ccc(O)c(OC)c2)ccc1O (stereo not shown) [HMR, hydroxymatairesinol]
[1]; 50 mg/kg HMR, four week exposure, mean
  Pituitary LH: 7.53 µg/pit
[1]; 4-week treatment
  Changes in testosterone or LH concentrations vs placebo: no significant changes
  Changes in the weights of accessory sex glands and testis vs placebo: no significant changes
MCF-7 cells
  Estrogenic or antiestrogenic activity in MCF-7 cell proliferation: very weak, not statistically significant
[2]; 3.0 vs 15.0 mg/kg
  Dose-dependency of antitumor action: no clear dose-dependency
[2]; HMR 3.0 and 15.0 mg/kg per os daily for 7.5 weeks, FIG. 4
  Antitumor effect (growing PD versus SD, PR, CR tumors): statistically very significant
[3]
  Estrogenic effect on the uterine weight gain: no significant estrogenic effect
aromatase
  Inhibition of 3H-17β-estradiol formation from 3H-androstenedione (aromatization): no inhibitory effects
[4]; control (intact) animals, 4-week treatment
  Changes in the weights of accessory sex glands and testis vs placebo: no significant changes
[4]; [7]
  Pituitary LH: 6.84 µg/pit
  Serum LH: 1.09 ng/mL
  Serum testosterone: 2.77 ng/mL
[4]; intact animals, 4-week treatment
  Changes in testosterone or LH concentrations vs placebo: no significant changes

## secoisolariciresinol-diglycoside [SDG]
[5]
  Formation of chemically induced aberrant crypts: inhibited
[6]
  Development of DMBA-induced breast cancer: prevented the development
Uterine weight
  Uterine weight (estrogen-like activity): increased the uterine weight at weaning

## O=C1OC[C@H](Cc2cccc(O)c2)[C@H]1[C@@H](O)c1cccc(O)c1 [7-hydroxyenterolactone]
aromatase
  Inhibition of 3H-17β-estradiol formation from 3H-androstenedione (aromatization): no inhibitory effects
